Laboratory results: patent publication US8916571B2, “Methods of treating cancer using inhibitors of 5′-methylthioadenosine phosphorylase” (Albert Einstein College of Medicine of Yeshiva University, priority 2006, dated 2014)
“Also recorded” adds a separate entry of the source.

Legend:
FaDu cells [1] = assay: Cell cycle and apoptosis analysis of FaDu cells (propidium staining, FACS); type: cell-based, human; settings: for Apoptosis / G1 / G2 / S: 6 days
Description: (§1) FaDu cells were maintained in MEM Eagle's media supplemented with 10% fetal bovine serum, 100 units/ml penicillin, 100 μg/mL streptomycin, 0.1 mM non essential amino acids and 1 mM sodium pyruvate. Cell survival was evaluated using the WST-1 assay (Kicska G A, long Li, Honig H, et al. Proc Natl Acad Sci USA 2001; 98:4593-98). Cells were seeded onto 96 well plates at a density of 10^4 cells per well, with either no additions, 1 μM compound (2), 20 μM MTA or 1 μM compound (2)+20 μM MTA, IC50 was determined following the manufacturer's protocol (Roche Applied Science, Ind.). Cells were grown and measured in triplicate or quadruplicate and the error bars show the mean±SD of the multiple samples.
FaDu cells were subjected to six days in culture using the same conditions described as for Example 4, before staining with propidium […] and FACS cell sorting analysis.

[2] = tested on: mouse lung cancer cells (3LL); assay: Mouse 3LL lung cancer cell culture study; type: cell-based
Description: Growth of 3LL and RM1 cells was in Dulbecco's modified Eagle's medium containing serum and antibiotics with 5 mM sodium pyruvate and 0.25 mM non essential amino acid mixture (Gibco). Compound (1) was added as a sterile solution and MTA was absent or present at 20 μM.

[3] = tested on: TRAMP (transgenic adenocarcinoma of mouse prostate) mice; assay: Treatment of TRAMP mice (tumour mass, metastasis, MRI, histology, polyamines); type: in vivo; settings: for prostate cancer progression: alone or in combination with MTA; for tumour weight upon dissection: TRAMP mouse treated with 1 mM compound
Description: MRI experiments were performed using a 9.4T 21 cm bore horizontal bore magnet (Magnex Scientific) Varian INOVA MRI system (Fremont, Calif.) equipped with a 28 mm inner diameter quadrature birdcage coil. Mice were anesthetized with isoflurane inhalation anesthesia (1-1.5% in 100% O2 administered via a nose cone) and positioned in the MRI coil. Body temperature was maintained (37-38° C.) using a homeothermic warming system. After acquiring scout images, multi-slice spin-echo imaging with an echo time of 18 ms and a repetition time of 400 ms ms was performed. A 40 mm field of view with a 256×256 matrix size was used. Nine to 15 slices along the transverse, sagittal, and coronal planes were acquired in each multi-slice experiment with a slice thickness of 1 mm and the gap between slices of 0.5 mm. MRI data were processed off-line with MATLAB-based MRI analysis software.
(§2) Spent media and perchloric acid extracts of both PC3 cells and tissue samples were subjected to purification via cation exchange chromatography and dansyl-derivatized with minor changes. Disposable 10 ml BIO-RAD columns were centrifuged at 4,000 rpm for 3 minutes. Sodium carbonate used for derivatization was adjusted to pH 9.3 and the concentration of dansyl-chloride was adjusted to 100 mM. Dansyl-polyamines were quantitated by a Waters HPLC/Fluorescence system. A Phenomenex Luna 5μ C18 column was used with a mobile phase of 30% acetonitrile in a 50 mM ammonium acetate buffer at pH 6.8 (eluent A) and 100% acetonitrile (eluent B). Fluorescence detection was monitored by excitation at 338 nm and emission at 500 nm.
Long-Term: Sterile solutions of 100 μM compound (2) (pH ˜6.4). Water bottles were autoclaved prior to filling with sterile inhibitor solutions. Water consumption was monitored every other day, with fresh inhibitor solution being administered to prevent bacterial growth. Mice were control-sacrificed and tissues (genitourinary system, liver, lungs) were collected for histology and polyamine analysis. Mass and dimensions of excised genitourinary system tumours were recorded. Sections of small intestine were also removed for toxicity analysis via H&E staining.

liver polyamine levels = assay: Short-term treatment of mice, liver polyamine analysis; type: in vivo, mouse; settings: short-term treatment (24, 48 hours, 7 days), 100 μM in drinking water
Description: C56BI/6 mice were treated with 100 μM compound (2) via their drinking water and sacrificed at 24, 48 hours, and 7 days. Livers were immediately removed for polyamine analysis. TRAMP mice were treated approximately 6-8 months with 100 μM compound (2) via their drinking water and control sacrificed. Livers were removed for polyamine analysis.
as §2
Short-Term: Mice were treated with sterile solutions of 100 μM compound (2) (pH ˜6.4). Water bottles were autoclaved prior to filling with sterile inhibitor solutions. Mice were sacrificed at 1, 2, and 7 days, with three mice in each group, with the control group sacrificed after 7 days. […]

FaDu xenografts = assay: FaDu xenograft study in NOD-SCID mice; type: in vivo, mouse
Description: NOD-SCID mice (6-8 weeks old) were obtained from Jackson Laboratory (Bar Harbor, Me.). FaDu cells (10^6) were inoculated into the dorsum of the hind foot. After 5 days, mice were treated with 9 mg/kg or 21 mg/kg body weight of compound (2) in drinking water or by daily i.p. injections of 5 mg/kg body weight of compound (2). After inoculation mice were assigned to treatment or control groups (n=5). Tumor volume (V) was determined from: V=(4/3)*(22/7)*1/8*(length*width*height). Differences between treatment cohorts were determined using the Student's t test. Mice were weighed every 4-5 days, monitored for hair loss, loss of appetite, vomiting and diarrhea. Total and differential blood and bone marrow analyses were performed after treatment with compound (2).

PC3 cells [4] = assay: Quantitation of polyamines in PC3 cells and spent media (HPLC fluorescence); type: cell-based, human
Description: PC3 cells were cultured and treated in triplicate as follows: untreated control, 20 μM substrate (MTA) alone, 1 μM compound (2) alone, or a combination of both substrate and inhibitor. Both cells and spent media were harvested at 1, 6, and 12 days for polyamine analysis by HPLC fluorescence.
as §2

[5] = tested on: normal human fibroblast cells (GM02037); assay: Cytotoxicity on normal human fibroblast cells; type: cell-based; settings: GM02037 cells treated with compound and MTA for 3 weeks
Description: In order to determine whether the inhibition is selective for malignant cells, normal human fibroblast cells (GM02037) were also treated with compound (2) and MTA for 3 weeks. […] This selectivity is a further indication that the MTAP inhibitors described above are useful agents for the treatment of head and neck cancer.

PC3 cells [6] = assay: Time dependent proliferation of PC3 cells (WST-1 assay); type: cell-based, human; settings: 1 μM compound + 20 μM MTA
Description: as §1, with “PC3” for “FaDu”, “Hong” for “Honig”, “MTA.” for “MTA,”

PC3 cells [7] = assay: Clonogenic survival assay of PC3 cells; type: cell-based, human; settings: combination treatment with MTA, approximately 2 weeks
Description: • 1. 60% confluent plates of experimental cell line was taken and subjected to trypsinization • 2. Single cell suspension of the experimental cell line was made in the regular growth medium and number of cells per mililiter of suspension counted • 3. A fixed low number of cells were plated out in a volume of 3 ml of growth medium in each well of 6 well culture dishes and incubated overnight at 37° C. in a CO2 incubator • 4. Measured volumes of the inhibitor and substrate solutions in sterile deionised cell culture water was added to each well of the 6 well plates. Typically each concentration of inhibitor and/or substrate was added in triplicate wells to calculate error bars. […] At the end of the period of incubation growth medium was removed from each well, attached cells were washed once with PBS and fixed by addition of […] Formalin solution to each well and keeping at room temperature for ˜1 hour. • 7. […] Number of crystal violet stained colonies in each well containing more than 60 cells per colony was counted. • 10. Assuming each colony originated from a single surviving cell post-treatment and taking the number of colonies in the untreated control well as 1, the fraction of surviving cells in each well was calculated and plotted in a graph. […]

SCC25 cells = assay: Time dependent proliferation of SCC25 cells (WST-1 assay); type: cell-based, human; settings: 1 μM compound + 20 μM MTA
Description: as §1, with “SCC25 cells were” for “FaDu cells were”, “long Li, Hong H, et” for “long Li, Honig H, et”, “1 μM MT-compound (2), 20” for “1 μM compound (2), 20”, “(2)+20 μM MTA. IC50 was” for “(2)+20 μM MTA, IC50 was”

Cal27 cells = Cal27 cells grown 8 days with compound and MTA; type: cell-based; settings: 1 μM compound + 20 μM MTA, G2/M arrest and apoptosis
Description: FIGS. 25A and 25B show Cal27 cells grown for 8 days as control (untreated), in the presence of 20 μM MTA, 1 μM compound (2) alone or in combination (1 μM compound (2)+20 μM MTA).

FaDu cells [8] = assay: Time dependent proliferation (WST-1) and phase contrast microscopy of FaDu cells; type: cell-based, human
Description: as §1
FaDu cells were subjected to six days in culture using the same conditions described as for Example 4.

[9] = TRAMP mice, 100 μM in drinking water, n=12, 29 ± 7 weeks treated

CSC[C@H]1O[C@@H](n2cnc3c(N)ncnc32)[C@H](O)[C@@H]1O [MTA, methylthioadenosine]
Apoptosis (FaDu cells [1]; single agent): 6.66% | G1 (FaDu cells [1]; single agent): 79.67% | G2 (FaDu cells [1]; single agent): 9.91% | S (FaDu cells [1]; single agent): 10.42%

Nc1ncnc2c(CN3CC(O)[C@@H](CSCc4ccccc4)C3)c[nH]c12 (stereo partly drawn) [compound (1)]
response of mouse lung cancer cells in culture ([2]; in the absence of MTA): not responding | response of mouse lung cancer cells in culture ([2]; in the presence of 20 μM MTA): responding

CSC[C@H]1N[C@@H](c2c[nH]c3c(N)ncnc23)C(O)C1O (stereo partly drawn) [compound (3)]
prostate cancer progression ([3]; TRAMP mice): inhibits prostate cancer progression | Apoptosis (FaDu cells [1]; MTA+compound): 29.41% | G1 (FaDu cells [1]; MTA+compound): 8.26% | G2 (FaDu cells [1]; MTA+compound): 60.49% | S (FaDu cells [1]; MTA+compound): 31.25% | Apoptosis (FaDu cells [1]; single agent): 7.89% | G1 (FaDu cells [1]; single agent): 72.06% | S (FaDu cells [1]; single agent): 17.98%

CSC[C@H]1CN(Cc2c[nH]c3c(N)ncnc23)C[C@@H]1O [compound (2)]
polyamine levels of mice livers (liver polyamine levels): not significantly altered | Metastatic Cancer [3, 9]: 8% | Tumor Size [3, 9]: 1.7 ± 0.8 g | prostate cancer progression ([3]; TRAMP mice): inhibited | toxicity: intestinal crypts (H&E), hair loss, GI problems ([3]; TRAMP mice, long-term treatment): No alterations, inflammations, or irregularities were observed | tumour weight upon dissection ([3]; dissection at 34 weeks of age (Panel E)): 0.41 g | tumour weight upon dissection ([3]; dissection at 39 weeks of age (Panel F)): 0.64 g | TRAMP liver or GUS polyamine levels ([3]; extended treatment, 100 μM in drinking water): no significant alterations | size and incidence of preinvasive tumors, incidence of invasive cancer and metastasis ([3]; treated TRAMP mice, histology): decreased | regrowth of tumor after treatment removed (FaDu xenografts; 28 days after end of 28 day therapy, two highest doses): no regrowth of tumor | animal weight, total and differential blood counts vs control (FaDu xenografts; NOD-SCID mice, after 28 day treatment): No significant differences | growth of established FaDu xenografts (FaDu xenografts; NOD-SCID mice, oral or i.p., with or without MTA): significantly slower than in controls; also recorded: significantly delays the growth | stopping cell cycling / apoptosis (FaDu cells [1]; in combination with MTA): effective for stopping cell cycling | intracellular PUT levels (PC3 cells [4]; 1 μM compound + 20 μM MTA, 1 day): 3.03×10^−3±2.86×10^−2 pmoles PUT/mg protein | SPN levels in spent media (PC3 cells [4]; compound + MTA, 1 day): slightly decreased | increase in intracellular PUT levels vs control (PC3 cells [4]; compound + MTA, 1 day): 6 fold | increase in intracellular SPD levels vs control (PC3 cells [4]; compound + MTA, 1 day): ~2.5 fold | increase in spent media PUT levels vs control (PC3 cells [4]; compound + MTA, 1 day): 2 fold | intracellular SPD levels (PC3 cells [4]; compound + MTA, 1 day): 7.19×10^−3±4.38×10^−2 pmoles SPD/mg protein | spent media PUT levels (PC3 cells [4]; compound + MTA, 1 day): 1.19×10^3±2.04×10^−1 pmoles PUT/mL spent media | PUT level vs control (PC3 cells [4]; compound + MTA, 6 days): elevated | SPD level vs control (PC3 cells [4]; compound + MTA, 6 days): elevated | decrease in cellular SPN levels vs control (PC3 cells [4]; compound + MTA, 6 days): roughly 0.5 fold | levels of PUT in spent media (PC3 cells [4]; compound + MTA, 6 days): 2.41×10^−3±7.35×10^−1 pmoles PUT/mL spent media | levels of PUT in spent media relative to control (PC3 cells [4]; compound + MTA, 6 days): almost double that of the control | cellular SPD levels (PC3 cells [4]; compound + MTA, day 12): 9.05×10^−3±1.09×10^−3 pmoles SPD/mg protein | intracellular PUT levels vs controls (PC3 cells [4]; compound + MTA, day 12): significantly higher than controls | cytotoxicity [5]: No cytotoxicity was observed | cell proliferation (PC3 cells [6]): reduces cell proliferation | effect on PC3 cells in clonogenic assay (PC3 cells [7]): cytostatic effect | cell proliferation (SCC25 cells): reduces cell proliferation | number of viable Cal27 cells (Cal27 cells): decreased | cell proliferation (FaDu cells [8]; 1 μM compound + 20 μM MTA): reduces cell proliferation | cell growth (phase contrast photographs) (FaDu cells [8]; 5 days, inhibitor compound + MTA): effective in inhibiting cell growth
